Assay results as given in ChEMBL document CHEMBL3751778, “Synthesis and biological evaluation of novel 7-O-lipophilic substituted baicalein derivatives as potential anticancer agents” (Medchemcomm, 2015).
The source made the active and inactive calls. The calls are words filed in the database; no cut-off is given here.

Key:
[1] = Antioxidant activity assessed as DPPH radical scavenging activity after 30 mins by ELISA reader analysis; type: physicochemical
[2] = Antioxidant activity assessed as ABTS radical scavenging activity after 6 mins by photometric analysis; type: physicochemical
SW480 [3] = test: Antiproliferative activity against human SW480 cells after 48 hrs by MTT assay; type: functional, cell-based; settings: SW480, 48 h
[4] = Antiproliferative activity against human DLD1 cells after 48 hrs by MTT assay; type: functional, cell-based; settings: DLD-1, 48 h
[5] = Cytotoxicity against mouse BNL-CL2 cells after 48 hrs by MTT assay; type: cell-based; settings: BNL CL.2, 48 h
HT-29 [6] = test: cells; settings: Homo sapiens, HT-29, 48 h
Description: Antiproliferative activity against human HT-29 cells after 48 hrs by MTT assay

HepG2 = test: cells; settings: Homo sapiens, HepG2, 48 h
SW480 [7] = test: Induction of apoptosis in human SW480 cells assessed as nuclear shrinkage at 20 uM after 48 hrs by Hoechst 33258 staining-based fluorescence microscopic analysis; type: functional, cell-based
SW480 [8] = test: Induction of apoptosis in human SW480 cells assessed as chromatin condensation at 20 uM after 48 hrs by Hoechst 33258 staining-based fluorescence microscopic analysis; type: functional, cell-based
SW480 [9] = test: Induction of apoptosis in human SW480 cells assessed as DNA fragmentation at 20 uM after 48 hrs by Hoechst 33258 staining-based fluorescence microscopic analysis; type: functional, cell-based
SW480 [10] = test: Cell cycle arrest in human SW480 cells assessed as accumulation at G1 phase at 5 uM after 48 hrs by propidium iodide staining-based flow cytometric analysis (reference value: 65.24%); type: functional
SW480 [11] = test: Cell cycle arrest in human SW480 cells assessed as accumulation at G1 phase at 10 uM after 48 hrs by propidium iodide staining-based flow cytometric analysis (reference value: 65.24%); type: functional
SW480 [12] = test: Cell cycle arrest in human SW480 cells assessed as accumulation at G1 phase at 20 uM after 48 hrs by propidium iodide staining-based flow cytometric analysis (reference value: 65.24%); type: functional
SW480 [13] = test: Cell cycle arrest in human SW480 cells assessed as accumulation at S phase at 5 uM after 48 hrs by propidium iodide staining-based flow cytometric analysis (reference value: 26.19%); type: functional
SW480 [14] = test: Cell cycle arrest in human SW480 cells assessed as accumulation at S phase at 10 uM after 48 hrs by propidium iodide staining-based flow cytometric analysis (reference value: 26.19%); type: functional
SW480 [15] = test: Cell cycle arrest in human SW480 cells assessed as accumulation at S phase at 20 uM after 48 hrs by propidium iodide staining-based flow cytometric analysis (reference value: 26.19%); type: functional
SW480 [16] = test: Cell cycle arrest in human SW480 cells assessed as accumulation at G2/M phase at 5 uM after 48 hrs by propidium iodide staining-based flow cytometric analysis (reference value: 8.57%); type: functional
SW480 [17] = test: Cell cycle arrest in human SW480 cells assessed as accumulation at G2/M phase at 10 uM after 48 hrs by propidium iodide staining-based flow cytometric analysis (reference value: 8.57%); type: functional
SW480 [18] = test: Cell cycle arrest in human SW480 cells assessed as accumulation at G2/M phase at 20 uM after 48 hrs by propidium iodide staining-based flow cytometric analysis (reference value: 8.57%); type: functional
SW480 [19] = test: Induction of apoptosis in human SW480 cells assessed as early apoptotic cells after 48 hrs by annexin V-FITC/propidium iodide staining-based flow cytometric analysis; type: functional, cell-based
SW480 [20] = test: Induction of apoptosis in human SW480 cells assessed as early apoptotic cells at 10 uM after 48 hrs by annexin V-FITC/propidium iodide staining-based flow cytometric analysis; type: functional, cell-based
SW480 [21] = test: Induction of ROS generation in human SW480 cells assessed as superoxide anion level at 5 uM after 48 hrs by DHE staining-based fluorescence assay (reference value: 101.21); type: functional
SW480 [22] = test: Induction of ROS generation in human SW480 cells assessed as superoxide anion level at 10 uM after 48 hrs by DHE staining-based fluorescence assay (reference value: 101.21 No_Unit); type: functional
SW480 [23] = test: Induction of ROS generation in human SW480 cells assessed as superoxide anion level at 20 uM after 48 hrs by DHE staining-based fluorescence assay (reference value: 101.21 No_Unit); type: functional
SW480 [24] = test: Induction of ROS generation in human SW480 cells after 48 hrs by DHE staining-based fluorescence assay; type: functional, cell-based
SW480 [25] = test: Antiproliferative activity against human SW480 cells after 24 hrs by MTT assay; type: functional, cell-based; settings: SW480, 24 h
SW480 [26] = test: Antiproliferative activity against human SW480 cells after 72 hrs by MTT assay; type: functional, cell-based; settings: SW480, 72 h
HT-29 [27] = test: Antiproliferative activity against human HT-29 cells after 24 hrs by MTT assay; type: functional, cell-based; settings: HT-29, 24 h
HT-29 [28] = test: Antiproliferative activity against human HT-29 cells after 72 hrs by MTT assay; type: functional, cell-based; settings: HT-29, 72 h
[29] = Antiproliferative activity against human DLD1 cells after 24 hrs by MTT assay; type: functional, cell-based; settings: DLD-1, 24 h
[30] = Antiproliferative activity against human DLD1 cells after 72 hrs by MTT assay; type: functional, cell-based; settings: DLD-1, 72 h
SW480 [31] = test: Induction of apoptosis in human SW480 cells assessed as late apoptotic cells at 10 uM after 48 hrs by annexin V-FITC/propidium iodide staining-based flow cytometric analysis; type: functional, cell-based
[32] = Cytotoxicity against mouse BNL-CL2 cells assessed as induction of cell death at 20 uM after 48 hrs by MTT assay; type: cell-based; settings: bnl-cl2, 48 h
SW480 [33] = test: Cell cycle arrest in human SW480 cells assessed as accumulation at S phase at 50 uM after 48 hrs by propidium iodide staining-based flow cytometric analysis; type: functional
SW480 [34] = test: Induction of apoptosis in human SW480 cells assessed as early apoptotic cells at 20 uM after 48 hrs by annexin V-FITC/propidium iodide staining-based flow cytometric analysis; type: functional, cell-based
SW480 [35] = test: Induction of apoptosis in human SW480 cells assessed as late apoptotic cells at 20 uM after 48 hrs by annexin V-FITC/propidium iodide staining-based flow cytometric analysis; type: functional, cell-based

SMILES: O=c1c(O)c(-c2ccc(O)c(O)c2)oc2cc(O)cc(O)c12 [QUERCETIN]
- IC50 [1]: 8.41 µM
- IC50 [2]: 7.26 µM

SMILES: CC(C)=CCC/C(C)=C/CC/C(C)=C/COc1cc(O)c2c(=O)cc(-c3ccccc3)oc2c1
- IC50 (SW480 [3]): > 20 µM
- IC50 [4]: > 20 µM
- IC50 [5]: > 20 µM
- IC50 (HT-29 [6]): > 20 µM
- IC50 (HepG2): > 20 µM

SMILES: CC(C)=CCC/C(C)=C/COc1cc2oc(-c3ccccc3)cc(=O)c2c(O)c1O
- IC50 [1]: 24.3 µM
- IC50 [2]: 20.4 µM
- IC50 (SW480 [3]): 2.84 µM
- IC50 [4]: 9.77 µM
- IC50 [5]: > 20 µM
- IC50 (HT-29 [6]): 17 µM
- IC50 (HepG2): > 20 µM

SMILES: COc1c(O)cc(O)c2c(=O)cc(-c3ccccc3)oc12 [WOGONIN]
- IC50 (SW480 [3]): 35.1 µM
- IC50 [4]: 36.9 µM
- IC50 [5]: > 40 µM
- IC50 (HT-29 [6]): 39.6 µM
- IC50 (HepG2): 37.9 µM

SMILES: O=c1cc(-c2ccccc2)oc2cc(O)cc(O)c12 [CHRYSIN]
- IC50 (SW480 [3]): 31.1 µM
- IC50 [4]: 18.6 µM
- IC50 [5]: > 40 µM
- IC50 (HT-29 [6]): 19.5 µM
- IC50 (HepG2): 16.5 µM

SMILES: CC(C)=CCC/C(C)=C/COc1cc(O)c2c(=O)cc(-c3ccccc3)oc2c1
- IC50 (SW480 [3]): > 20 µM
- IC50 [4]: > 20 µM
- IC50 [5]: > 20 µM
- IC50 (HT-29 [6]): > 20 µM
- IC50 (HepG2): > 20 µM

SMILES: CC(C)=CCC/C(C)=C/CC/C(C)=C/COc1cc2oc(-c3ccccc3)cc(=O)c2c(O)c1O
- IC50 [1]: 24.6 µM
- IC50 [2]: 24 µM
- IC50 (SW480 [3]): 1.15 µM
- IC50 [4]: 4.88 µM
- IC50 [5]: > 20 µM
- Activity (SW480 [7]): Active
- Activity (SW480 [8]): Active
- Activity (SW480 [9]): Active
- Activity (SW480 [10]): 68.64%
- Activity (SW480 [11]): 57.2%
- Activity (SW480 [12]): 43.3%
- Activity (SW480 [13]): 23.88%
- Activity (SW480 [14]): 33.33%
- Activity (SW480 [15]): 50%
- Activity (SW480 [16]): 7.47%
- Activity (SW480 [17]): 9.41%
- Activity (SW480 [18]): 6.64%
- Activity (SW480 [19]): Dose-dependent effect
- Activity (SW480 [20]): Active
- Flu intensity (SW480 [21]): 102.13
- Flu intensity (SW480 [22]): 169.24
- Flu intensity (SW480 [23]): 192.86
- Activity (SW480 [24]): Dose-dependent effect
- IC50 (SW480 [25]): > 20 µM
- IC50 (SW480 [26]): 1.26 µM
- IC50 (HT-29 [27]): > 20 µM
- IC50 (HT-29 [28]): 15.4 µM
- IC50 [29]: 16.1 µM
- IC50 [30]: 6.86 µM
- Activity (SW480 [31]): Active
- Activity [32]: < 20%
- IC50 (HT-29 [6]): 14.9 µM
- IC50 (HepG2): > 20 µM

SMILES: COc1cccc2c1C(=O)c1c(O)c3c(c(O)c1C2=O)C[C@@](O)(C(=O)CO)C[C@@H]3O[C@H]1C[C@H](N)[C@H](O)[C@H](C)O1 [DOXORUBICIN]
- IC50 (SW480 [3]): 0.53 µM

SMILES: Cc1c(C)c2c(c(C)c1O)CCC(C)(C(=O)O)O2 (stereo not drawn) [TROLOX]
- IC50 [1]: 22.7 µM
- IC50 [2]: 16.8 µM

SMILES: COc1cc(O)c2c(=O)cc(-c3ccccc3)oc2c1 [TECHTOCHRYSIN]
- IC50 (SW480 [3]): > 20 µM
- IC50 [4]: > 20 µM
- IC50 [5]: > 20 µM
- IC50 (HT-29 [6]): > 20 µM
- IC50 (HepG2): > 20 µM

SMILES: CCCCOc1cc2oc(-c3ccccc3)cc(=O)c2c(O)c1O
- IC50 [1]: 12.9 µM
- IC50 [2]: 14 µM
- IC50 (SW480 [3]): > 20 µM
- IC50 [4]: > 20 µM
- IC50 [5]: > 20 µM
- IC50 (HT-29 [6]): 19.5 µM
- IC50 (HepG2): > 20 µM

SMILES: O=c1[nH]cc(F)c(=O)[nH]1 [FLUOROURACIL]
- IC50 (SW480 [3]): 32.7 µM
- IC50 (HT-29 [6]): > 100 µM
- IC50 (HepG2): 40.2 µM

SMILES: CC(C)=CCOc1cc2oc(-c3ccccc3)cc(=O)c2c(O)c1O
- IC50 [1]: 24 µM
- IC50 [2]: 18.8 µM
- IC50 (SW480 [3]): 8.6 µM
- IC50 [4]: > 20 µM
- IC50 [5]: > 20 µM
- IC50 (HT-29 [6]): > 20 µM
- IC50 (HepG2): > 20 µM

SMILES: COc1cc2oc(-c3ccccc3)cc(=O)c2c(O)c1O
- IC50 [1]: 28.4 µM
- IC50 [2]: 20.2 µM
- IC50 (SW480 [3]): 29.4 µM
- IC50 [4]: 30.9 µM
- IC50 [5]: > 40 µM
- IC50 (HT-29 [6]): > 40 µM
- IC50 (HepG2): > 40 µM

SMILES: O=c1cc(-c2ccccc2)oc2cc(O)c(O)c(O)c12 [BAICALEIN]
- IC50 [1]: 17.2 µM
- IC50 [2]: 15.5 µM
- IC50 (SW480 [3]): 14.1 µM
- IC50 [4]: 27.9 µM
- IC50 [5]: > 40 µM
- Activity (SW480 [7]): Active
- Activity (SW480 [8]): Active
- Activity (SW480 [9]): Active
- Activity (SW480 [10]): 63.64%
- Activity (SW480 [11]): 64.29%
- Activity (SW480 [12]): 64.54%
- Activity (SW480 [13]): 28.61%
- Activity (SW480 [14]): 28.65%
- Activity (SW480 [15]): 27.51%
- Activity (SW480 [16]): 7.75%
- Activity (SW480 [17]): 7.05%
- Activity (SW480 [18]): 7.95%
- Activity (SW480 [33]): Active
- Activity (SW480 [19]): inactive
- Activity (SW480 [34]): Active
- Flu intensity (SW480 [21]): 104.84
- Flu intensity (SW480 [22]): 99.49
- Flu intensity (SW480 [23]): 98.79
- Activity (SW480 [24]): Dose-dependent effect
- IC50 (SW480 [25]): 16.9 µM
- IC50 (SW480 [26]): 11.6 µM
- IC50 (HT-29 [27]): > 20 µM
- IC50 (HT-29 [28]): 18.4 µM
- IC50 [29]: > 20 µM
- IC50 [30]: > 20 µM
- Activity (SW480 [35]): Active
- IC50 (HT-29 [6]): 18.1 µM

SMILES: O=C1O[C@H]([C@@H](O)CO)C(O)=C1O [ASCORBIC ACID]
- IC50 [1]: 27.3 µM
- IC50 [2]: 18.3 µM
